The results in this text go back to US20180002288A1, “USE OF PICOLINAMIDES AS FUNGICIDES” (DOW AGROSCIENCES LLC, priority 2014, published 2018).

One experiment deals with Zymoseptoria tritici. Description: Leaf Blotch of Wheat fungicidal activity (SEPTTR). Type of experiment: in vivo. The following applies: for pest or weed control at 121.5 g/ha: Low Volume Cereal Activity at 121.5 g/Ha; for pest or weed control at 100 ppm: wheat, high volume. On the procedure: (§1) All fungicides were evaluated using the aforementioned method for their activity vs. all target diseases, unless stated otherwise. Wheat leaf blotch and brown rust activity were also evaluated using track spray applications, in which case the fungicides were formulated as EC formulations, containing 0.1% Trycol 5941 in the spray solutions. Wheat plants (variety Yuma) were grown from seed in a greenhouse in 50% mineral soil/50% soil-less Metro mix until the first leaf was fully emerged, with 7-10 seedlings per pot. These plants were inoculated with an aqueous spore suspension of Zymoseptoria tritici either prior to or after fungicide treatments. After inoculation the plants were kept in 100% relative humidity (one day in a dark dew chamber followed by two to three days in a lighted dew chamber at 20° C.) to permit spores to germinate and infect the leaf. The plants were then transferred to a greenhouse set at 20° C. for disease to develop. When disease symptoms were fully expressed on the 1st leaves of untreated plants, infection levels were assessed on a scale of 0 to 100 percent disease severity. Percent disease control was calculated using the ratio of disease severity on treated plants relative to untreated plants.

The subject of the next experiment is Puccinia triticina. Description: Wheat Brown Rust fungicidal activity (PUCCRT). Type of experiment: in vivo. The following applies: for pest or weed control at 121.5 g/ha: Low Volume Cereal Activity at 121.5 g/Ha; for pest or weed control at 100 ppm: wheat, high volume. How it is done: as §1, with “plants. Wheat plants (variety Yuma) were grown from seed in a greenhouse in 50% mineral soil/50% soil-less Metro mix until the first leaf was fully emerged, with 7-10 seedlings per pot. These plants were inoculated with an aqueous spore suspension of Puccinia triticina either prior to or after fungicide treatments. […] The plants were then transferred to a greenhouse set at 24° C. for disease to develop. Fungicide formulation, application and disease assessment followed the procedures as described in the Example A.” for “plants.”

Setting [1] is: 24 h, 1 Day Protectant, read-out: SEPTTR 1DP (Wheat Leaf Blotch, 1 Day Protectant).
[2] abbreviates: 72 h, 3 Day Curative, read-out: SEPTTR 3DC (Wheat Leaf Blotch, 3 Day Curative).
[3] abbreviates: 24 h, 1 Day Protectant, read-out: PUCCRT 1DP (Wheat Brown Rust, 1 Day Protectant).
Setting [4] is: 72 h, 3 Day Curative, read-out: PUCCRT 3DC (Wheat Brown Rust, 3 Day Curative).
The mark [5] stands for this setting: 24 h, 1 Day Protectant, read-out: SEPTTR 1DP % Control rating.
Setting [6] is: 72 h, 3 Day Curative, read-out: SEPTTR 3DC % Control rating.
Setting [7] is: 24 h, 1 Day Protectant, read-out: PUCCRT 1DP % Control rating.
Where [8] appears, read: 72 h, 3 Day Curative, read-out: PUCCRT 3DC % Control rating.

Like-named read-outs stand apart in the source and are kept apart here.

Regarding `COc1ccnc(C(=O)N[C@@H](C)C(=O)O[C@@H](C)[C@@H](Oc2ccccc2)c2ccccc2)c1OCOC(C)=O` [Example 219], the pest or weed control at 121.5 g/ha in the experiment with Zymoseptoria tritici (setting [1]), with Zymoseptoria tritici (setting [2]), in the experiment with Puccinia triticina (setting [3]) and in the experiment with Puccinia triticina (setting [4]) was over 80% in each case.

For `CCCO[C@H](c1ccccc1)[C@H](C)OC(=O)[C@H](C)NC(=O)c1nccc(OC)c1O` [Example 137], the pest or weed control at 100 ppm in the experiment with Zymoseptoria tritici (setting [5]), with Zymoseptoria tritici (setting [6]), in the experiment with Puccinia triticina (setting [7]) and in the experiment on Puccinia triticina (setting [8]) was over 80% each time.

With `COc1ccnc(C(=O)N[C@@H](C)C(=O)O[C@@H](C)[C@H](Oc2ccccc2)c2ccc(-c3ccccc3)cc2)c1OCOC(C)=O` [Example 239], the pest or weed control at 121.5 g/ha with Zymoseptoria tritici (setting [1]) was over 80%; with Zymoseptoria tritici (setting [2]), over 80%; with Puccinia triticina (setting [3]) it was over 80%; in the experiment with Puccinia triticina (setting [4]), under 80%.

For `COc1ccnc(C(=O)N[C@@H](C)C(=O)O[C@@H](C)[C@@H](OCC2CC2)c2ccccc2)c1O` [Example 142], the pest or weed control at 100 ppm was under 80% in the experiment on Zymoseptoria tritici (setting [5]), under 80% in the experiment on Zymoseptoria tritici (setting [6]), over 80% in the experiment with Puccinia triticina (setting [7]) and over 80% with Puccinia triticina (setting [8]).

With `COc1ccnc(C(=O)N[C@@H](C)C(=O)O[C@@H](C)C(Oc2ccccc2)c2nccs2)c1OC(C)=O` (stereo partly shown) [Example 212], the pest or weed control at 121.5 g/ha was under 0% in the experiment with Zymoseptoria tritici (setting [1]), under 80% in the experiment with Zymoseptoria tritici (setting [2]), under 80% in the experiment on Puccinia triticina (setting [3]) and over 80% with Puccinia triticina (setting [4]).

For the molecule `COc1ccnc(C(=O)N[C@@H](C)C(=O)O[C@@H](C)[C@H](Oc2ccccc2)c2nccs2)c1O` [Example 132], the pest or weed control at 100 ppm in the experiment with Zymoseptoria tritici (setting [5]) was under 80%; with Zymoseptoria tritici (setting [6]), under 0%; in the experiment on Puccinia triticina (setting [7]), over 80%; with Puccinia triticina (setting [8]) it was under 80%.

In the case of `COc1ccnc(C(=O)N[C@@H](C)C(=O)O[C@@H](C)[C@H](OC)c2ccccc2)c1OC(C)=O` [Example 231], the pest or weed control at 121.5 g/ha with Zymoseptoria tritici (setting [1]) is under 0%; in the experiment with Zymoseptoria tritici (setting [2]), over 80%; with Puccinia triticina (setting [3]), under 0%; in the experiment with Puccinia triticina (setting [4]) it was over 80%.

On to `CC[C@H](NC(=O)c1nccc(OC)c1OC(C)=O)C(=O)O[C@@H](C)[C@H](Oc1cc(F)ccc1F)c1ccccc1` [Example 194], for which the pest or weed control at 121.5 g/ha was under 80% in the experiment on Zymoseptoria tritici (setting [1]), under 0% in the experiment with Zymoseptoria tritici (setting [2]), over 80% in the experiment on Puccinia triticina (setting [3]) and under 80% in the experiment on Puccinia triticina (setting [4]).

Turning to `COc1ccnc(C(=O)N[C@@H](C)C(=O)O[C@@H](C)[C@H](Oc2ccc(C)cc2)c2ccccc2)c1O` [Example 151], the pest or weed control at 100 ppm with Zymoseptoria tritici (setting [5]) was over 80%; with Zymoseptoria tritici (setting [6]), under 80%; in the experiment on Puccinia triticina (setting [7]), over 80%; in the experiment with Puccinia triticina (setting [8]) it was over 80%.

Regarding `COc1ccnc(C(=O)N[C@@H](C)C(=O)O[C@@H](C)[C@H](Oc2ccccc2)c2ccc(C)cc2)c1O` [Example 154], the pest or weed control at 100 ppm with Zymoseptoria tritici (setting [5]), in the experiment on Zymoseptoria tritici (setting [6]), in the experiment on Puccinia triticina (setting [7]) and in the experiment on Puccinia triticina (setting [8]) was over 80% throughout.

For the molecule `COc1ccnc(C(=O)N[C@@H](C)C(=O)O[C@@H](C)[C@H](Oc2ccccc2)c2ccc(F)cc2Oc2ccccc2)c1O` [Example 178], the pest or weed control at 100 ppm was over 80% in the experiment with Zymoseptoria tritici (setting [5]), over 80% in the experiment with Zymoseptoria tritici (setting [6]), over 80% in the experiment on Puccinia triticina (setting [7]) and under 80% in the experiment with Puccinia triticina (setting [8]).

In the case of `COc1ccnc(C(=O)N[C@@H](C)C(=O)O[C@@H](C)[C@H](Oc2cc(F)ccc2F)c2ccccc2)c1OCOC(C)=O` [Example 191], the pest or weed control at 121.5 g/ha with Zymoseptoria tritici (setting [1]) is under 0%; with Zymoseptoria tritici (setting [2]) it was under 80%; in the experiment with Puccinia triticina (setting [3]), over 80%; with Puccinia triticina (setting [4]) it was over 80%.

With `COc1ccnc(C(=O)N[C@@H](C)C(=O)O[C@@H](C)[C@@H](OC)c2ccccc2)c1OC(C)=O` [Example 229], the pest or weed control at 121.5 g/ha was under 0% in the experiment on Zymoseptoria tritici (setting [1]), under 80% with Zymoseptoria tritici (setting [2]), under 0% in the experiment on Puccinia triticina (setting [3]) and over 80% in the experiment with Puccinia triticina (setting [4]).

As for `COc1cc(F)ccc1[C@@H](OC(=O)C1CC1)[C@H](C)OC(=O)[C@H](C)NC(=O)c1nccc(OC)c1O` [Example 291], the pest or weed control at 100 ppm in the experiment with Zymoseptoria tritici (setting [5]) is under 0%; with Zymoseptoria tritici (setting [6]) it was over 80%; with Puccinia triticina (setting [7]), under 80%; in the experiment on Puccinia triticina (setting [8]) it was under 80%.

Turning to `COc1ccnc(C(=O)N[C@@H](C)C(=O)O[C@@H](C)[C@@H](Oc2ccccc2)c2cccs2)c1OC(C)=O` [Example 210], the pest or weed control at 121.5 g/ha in the experiment with Zymoseptoria tritici (setting [1]), in the experiment on Zymoseptoria tritici (setting [2]), in the experiment with Puccinia triticina (setting [3]) and in the experiment on Puccinia triticina (setting [4]) was under 80% each time.

With `COc1ccnc(C(=O)N[C@@H](C)C(=O)O[C@@H](C)[C@H](Oc2ccccc2)c2ccc(F)cc2OCC2CC2)c1O` [Example 175], the pest or weed control at 100 ppm in the experiment on Zymoseptoria tritici (setting [5]) is over 80%; in the experiment on Zymoseptoria tritici (setting [6]), under 80%; with Puccinia triticina (setting [7]), over 80%; with Puccinia triticina (setting [8]), over 80%.

Consider `COc1ccnc(C(=O)N[C@H](C(=O)O[C@@H](C)[C@H](Oc2ccc(C(F)(F)F)cc2)c2ccccc2)C(C)C)c1O` [Example 126], for which the pest or weed control at 100 ppm is under 0% in the experiment on Zymoseptoria tritici (setting [5]), under 80% with Zymoseptoria tritici (setting [6]), under 80% with Puccinia triticina (setting [7]) and under 0% in the experiment on Puccinia triticina (setting [8]).

Take `COc1ccnc(C(=O)N[C@@H](C)C(=O)O[C@@H](C)[C@H](OCC2CC2)c2ccccc2)c1O` [Example 113]: the pest or weed control at 100 ppm in the experiment with Zymoseptoria tritici (setting [5]) is over 80%; in the experiment with Zymoseptoria tritici (setting [6]), over 80%; in the experiment with Puccinia triticina (setting [7]) it was over 80%; with Puccinia triticina (setting [8]), under 80%.

In the case of `COc1ccnc(C(=O)N[C@@H](Cc2ccccc2)C(=O)O[C@@H](C)[C@H](Oc2cccc(F)c2)c2ccccc2)c1OC(C)=O` [Example 190], the pest or weed control at 121.5 g/ha in the experiment on Zymoseptoria tritici (setting [1]) is under 80%; with Zymoseptoria tritici (setting [2]) it was under 0%; in the experiment on Puccinia triticina (setting [3]), over 80%; in the experiment on Puccinia triticina (setting [4]), under 80%.

For the molecule `COc1ccnc(C(=O)N[C@@H](C)C(=O)O[C@@H](C)[C@H](OCC2CC2)c2ccc(-c3ccccc3)cc2)c1OCOC(C)=O` [Example 234], the pest or weed control at 121.5 g/ha in the experiment with Zymoseptoria tritici (setting [1]) is over 80%; in the experiment with Zymoseptoria tritici (setting [2]), over 80%; in the experiment on Puccinia triticina (setting [3]), over 80%; with Puccinia triticina (setting [4]), under 80%.

With `COc1ccnc(C(=O)N[C@@H](C)C(=O)O[C@@H](C)[C@@H](Oc2ccc(Cl)cc2Cl)c2ccccc2)c1OC(=O)C(C)C` [Example 215], the pest or weed control at 121.5 g/ha in the experiment with Zymoseptoria tritici (setting [1]), with Zymoseptoria tritici (setting [2]), in the experiment with Puccinia triticina (setting [3]) and in the experiment with Puccinia triticina (setting [4]) was under 80% in each case.

Consider `CC[C@H](NC(=O)c1nccc(OC)c1OCOC(C)=O)C(=O)O[C@@H](C)[C@H](Oc1cc(F)cc(Cl)c1)c1ccccc1` [Example 208], for which the pest or weed control at 121.5 g/ha in the experiment on Zymoseptoria tritici (setting [1]) was over 80%; with Zymoseptoria tritici (setting [2]), over 80%; in the experiment with Puccinia triticina (setting [3]) it was over 80%; with Puccinia triticina (setting [4]), under 80%.
